This note sets out measurements from US20110251379A1, “COMPOUNDS USEFUL FOR TREATING NEURODEGENERATIVE DISORDERS” (Satori Pharmaceuticals, Inc., priority 2010, published 2011).

One may read the IC50 as the point on the concentration scale where inhibition reaches its midpoint.

The test system of the first test is amyloid-beta (1-42) peptide. The test is described as follows: ELISA assay of amyloid-beta (1-42) in conditioned media of 2B7 cells. The settings on record: Aβ-42, 20 umol/L. Format: cell-based. An outline of the steps: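 2B7 cells were treated with compounds for 5 hours at 37° C in media with 1% DMSO. Conditioned media, diluted 1:2 in blocking buffer, went into a sandwich ELISA with 6E10 capture and an HRP-labelled detection antibody, read by TMB at 450 nm. Values came from an Aβ peptide standard curve.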
Consider `CC1CC(C(O)C(C)(C)O)OC2C1C1(C)CCC34CC35CCC(OC3CN(C6CCOC6)CCO3)C(C)(C)C5CCC4C1(C)C2O` (single isomer, unassigned) [drawing 1105], for which the “% Inhibition (range)” value is reported as “F (% inhibition of <25%)”.

Consider `CC1CC(C(O)C(C)(C)O)OC2C1C1(C)CCC34CC35CCC(OC3CN(C6CCOC6)CCO3)C(C)(C)C5CCC4C1(C)C2O` (single isomer, unassigned) [drawing 1106], for which the “% Inhibition (range)” value is on record as “E (% inhibition of 25-75%)”.

Regarding `CC1CC(CO)OC2C1C1(C)CCC34CC35CCC(OC3OCC(O)C(O)C3O)C(C)(C)C5CCC4C1(C)C2O` (stereo not shown) [drawing 782], the “% Inhibition (range)” value is recorded as “E (% inhibition of 25-75%)”.

Still in this test, the particulars now being: Aβ-42, 2B7 cells, 5 hours; read-out: IC50 range.
Turning to `CC(=O)NCC1CC(C)C2C(O1)C(O)C1(C)C3CCC4C(C)(C)C(O)CCC45CC35CCC21C` (stereo not shown), the half-maximal inhibitory concentration (IC50) is over 10 µM.

For `CC1CC(CNC(C)(C)C)OC2C1C1(C)CCC34CC35CCC(OS(C)(=O)=O)C(C)(C)C5CCC4C1(C)C2O` (stereo not shown), the IC50 was over 10 µM.

As to `CCC(=O)N(CC1CC(C)C2C(O1)C(O)C1(C)C3CCC4C(C)(C)C(O)CCC45CC35CCC21C)C(C)(C)C` (stereo not shown), the IC50 is over 10 µM.

On to `CC1CC(C(=O)N2CCC2)OC2C1C1(C)CCC34CC35CCC(O)C(C)(C)C5CCC4C1(C)C2O` (stereo not shown), for which the IC50 was over 10 µM.

For `CC1CC(C(=O)N2CCOCC2)OC2C1C1(C)CCC34CC35CCC(O)C(C)(C)C5CCC4C1(C)C2O` (stereo not shown), the 50% inhibitory concentration (IC50) is over 10 µM.

Consider `CC1CC(CNS(C)(=O)=O)OC2C1C1(C)CCC34CC35CCC(O)C(C)(C)C5CCC4C1(C)C2O` (stereo not shown), for which the IC50 was over 10 µM.

For `CC(=O)N(CC1CC(C)C2C(O1)C(O)C1(C)C3CCC4C(C)(C)C(O)CCC45CC35CCC21C)C1COC1` (stereo not shown), the IC50 was over 10 µM.

Regarding `CC1CC(CN(C2COC2)S(C)(=O)=O)OC2C1C1(C)CCC34CC35CCC(O)C(C)(C)C5CCC4C1(C)C2O` (stereo not shown), the IC50 is over 10 µM.

Turning to `CC(=O)N(CC1CC1)CC1CC(C)C2C(O1)C(O)C1(C)C3CCC4C(C)(C)C(O)CCC45CC35CCC21C` (stereo not shown), the IC50 is over 10 µM.

For the compound `CC1CC(CN(CC2CC2)S(C)(=O)=O)OC2C1C1(C)CCC34CC35CCC(O)C(C)(C)C5CCC4C1(C)C2O` (stereo not shown), the IC50 is over 10 µM.

With `CC(=O)N(CC1CC(C)C2C(O1)C(O)C1(C)C3CCC4C(C)(C)C(O)CCC45CC35CCC21C)CC(C)(C)O` (stereo not shown), the IC50 is over 10 µM.

As for `CC1CC(CO)OC2C1C1(C)CCC34CC35CCC(OC3OCC(O)C(O)C3O)C(C)(C)C5CCC4C1(C)C2O` (stereo not shown) [drawing 782], the IC50 was over 10 µM.

On to `CC1CC(CO)OC2C1C1(C)CCC34CC35CCC(OC3OCC(O)C(O)C3O)C(C)(C)C5CCC4C1(C)C2O` (stereo not shown) [drawing 783], for which the IC50 was in the range of 1 to 10 µM.

Regarding `CC(=O)OC(C1CC(C)C2C(O1)C(O)C1(C)C3CCC4C(C)(C)C(OC5CN(S(C)(=O)=O)CCO5)CCC45CC35CCC21C)C(C)(C)O` (stereo not shown) [drawing 785], the IC50 was at most 1 µM.

For the compound `CC(=O)OC(C1CC(C)C2C(O1)C(O)C1(C)C3CCC4C(C)(C)C(OC(=O)C5CNC5)CCC45CC35CCC21C)C(C)(C)O` (stereo not shown) [drawing 791], the IC50 was at most 1 µM.

For `CC(=O)OCC1CC(C)C2C(O1)C(O)C1(C)C3CCC4C(C)(C)C(OC5OCC(O)C(O)C5O)CCC45CC35CCC21C` (stereo not shown) [drawing 792], the IC50 was in the range of 1 to 10 µM.

`CC(=O)N(Cc1ccccc1)CC1CC(C)C2C(O1)C(O)C1(C)C3CCC4C(C)(C)C(O)CCC45CC35CCC21C` (stereo not shown) [drawing 801]: the IC50 was in the range of 1 to 10 µM.

In the case of `CC1CC(C(=O)O)OC2C1C1(C)CCC34CC35CCC(O)C(C)(C)C5CCC4C1(C)C2O` (stereo not shown) [drawing 803], the IC50 is over 10 µM.

In the case of `CCC(=O)OC(C1CC(C)C2C(O1)C(O)C1(C)C3CCC4C(C)(C)C(OC5CN(C6COC6)CCO5)CCC45CC35CCC21C)C(C)(C)O` (stereo not shown) [drawing 805], the IC50 is at most 1 µM.

For the compound `CC(=O)OCC1CC(C)C2C(O1)C(O)C1(C)C3CCC4C(C)(C)C(OC(=O)c5cccnc5)CCC45CC35CCC21C` (stereo not shown) [drawing 832], the IC50 is 1 to 10 µM.

For the compound `CC(=O)N(Cc1cc(F)cc(F)c1)CC1CC(C)C2C(O1)C(O)C1(C)C3CCC4C(C)(C)C(O)CCC45CC35CCC21C` (stereo not shown) [drawing 839], the IC50 was at most 1 µM.

Consider `CC(=O)N(Cc1ccccn1)CC1CC(C)C2C(O1)C(O)C1(C)C3CCC4C(C)(C)C(O)CCC45CC35CCC21C` (stereo not shown) [drawing 841], for which the IC50 was in the range of 1 to 10 µM.
